According to patent US9758527B2, “Cyclohexene derivative, preparation method therefor, and pharmaceutical composition for preventing or treating metabolic diseases, containing same as active ingredient” (HYUNDAI PHARM CO., LTD., priority 2014, dated 2017):
Where a name gives a salt, the structure may show the parent alone. Read-outs that look alike come from different tables or passages of the source.

Target: T1, G protein-coupled receptor 119 (GPR-119) (Mesocricetus auratus, UniProt A0A1U8CD06)
T1 construct: hamster-derived β-cells containing G protein-coupled receptor 119 (GPR-119), HIT-T15 cells; host or cells: HIT-T15 (hamster pancreatic β-cells)
T1 sequence (A0A1U8CD06 1-334): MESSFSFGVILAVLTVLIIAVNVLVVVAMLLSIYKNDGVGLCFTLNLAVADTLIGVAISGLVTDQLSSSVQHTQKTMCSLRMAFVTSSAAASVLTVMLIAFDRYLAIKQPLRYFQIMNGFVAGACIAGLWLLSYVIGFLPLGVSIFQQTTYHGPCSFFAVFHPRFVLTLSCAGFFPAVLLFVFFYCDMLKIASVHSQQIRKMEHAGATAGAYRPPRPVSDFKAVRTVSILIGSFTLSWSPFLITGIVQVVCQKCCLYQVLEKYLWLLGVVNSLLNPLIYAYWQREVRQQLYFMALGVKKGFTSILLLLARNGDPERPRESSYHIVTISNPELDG
Test: Evaluation of cAMP activity in HIT-T15 cells (HTRF cAMP dynamic kit)
Type: cell-based, hamster
Conditions: cAMP activation
Method: To check whether the cyclohexene derivatives according to the present invention activate cyclic adenosine monophosphate (cAMP), experiments were carried out, as follows.
The HIT-T15 cells were plated on a 96-well plate at 60,000 cells per well. On the next day of plating, the cells were treated with a varying concentration of each of the example compounds according to the present invention, and incubated at 37° C. for an hour. In this case, each of the treated compounds was used at six concentrations, ranging from […], to treat the cells.
The cyclic adenosine monophosphate (cAMP) activity was measured according to the manufacturer's instruction using a cAMP dynamic kit commercially available from Cis Bio Inc. (Bedford, Mass.). The cells were lysed, and a level of cAMP was determined by a competitive immunoassay using D2-labeled cAMP and a cryptate-labeled anti-cAMP antibody. Fluorescence was read in Flex Station (Molecular Devices). […] Unlabeled cAMP in the cell lysate competed with the D2-labeled cAMP against the cryptate-labeled antibody. Since a decrease in the measured intensity of the FRET signals represents a level of cAMP in the cells, the cAMP activities of the compounds are calculated as a change in FRET signals by adjusting an amount of dimethyl sulfoxide (DMSO).

[1] = 1 h at 37° C., six concentrations, read-out: EC50

Row | SMILES | EC50 [1] [nM] | EC50 (read-out: EC50 value) [nM] | EC50 (EC50 (nM), 1 h at 37° C., six concentrations) [nM] | EC50 (EC50 value) [nM]
1 | CCc1cnc(N2CCC(COc3ccc(C4=CCC(C(=O)N5CCC[C@H]5C(N)=O)CC4)cc3)CC2)nc1 (stereo partly drawn) [Example 105, (2S)-1-(4-(4-((1-(5-ethylpyrimidin-2-yl)piperidin-4-yl)methoxy)phenyl)cyclohex-3-enecarbonyl)pyrrolidine-2-carboxamide] | 43 | ≤ 50 |  | 
2 | CC(C)(C)OC(=O)N1CCC(COc2ccc(C3=CCC(C(=O)NCC(F)F)CC3)cn2)CC1 (centres unmarked) [Example 87, tert-butyl 4-((5-(4-(2,2-difluoroethylcarbamoyl)cyclohex-1-enyl)pyridin-2-yloxy)methyl)piperidine-1-carboxylate] | 70 |  |  | 
3 | CC(C)c1noc(N2CCC(COc3ccc(C4=CCC(C(=O)NC(CO)CO)CC4)cc3)CC2)n1 (centres unmarked) [Example 23, N-(1,3-dihydroxypropan-2-yl)-4-(4-((1-(3-isopropyl-1,2,4-oxadiazol-5-yl)piperidin-4-yl)methoxy)phenyl)cyclohex-3-enecarboxamide] | 160 |  |  | 
4 | CC(C)c1noc(N2CCC(COc3ccc(C4=CCC(C(=O)N5CC[C@H](F)C5)CC4)nc3)CC2)n1 (stereo partly drawn) [Example 102, ((S)-3-fluoropyrrolidin-1-yl)(4-(5-((1-(3-isopropyl-1,2,4-oxadiazol-5-yl)piperidin-4-yl)methoxy)pyridin-2-yl)cyclohex-3-enyl)methanone] | 52 |  |  | 
5 | CC(C)(C)OC(=O)N1CCC(COc2ccc(C3=CCC(C(=O)N4CCC5(CC4)OCCO5)CC3)cc2)CC1 (centres unmarked) [Example 263, tert-butyl 4-((4-(4-(1,4-dioxa-8-azaspiro[4.5]decane-8-carbonyl)cyclohex-1-enyl)phenoxy)methyl)piperidine-1-carboxylate] |  |  | 9 | ≤ 50
6 | CC(C)(C)OC(=O)N1CCC(COc2ccc(C3=CCC(C(=O)NC[C@@H](O)CO)CC3)cc2F)CC1 (stereo partly drawn) [Example 64, tert-butyl 4-((4-(4-((R)-2,3-dihydroxypropylcarbamoyl)cyclohex-1-enyl)-2-fluorophenoxy)methyl)piperidine-1-carboxylate] | 50 | ≤ 50 |  | 
7 | CC(C)c1noc(N2CCC(COc3ccc(C4=CCC(C(=O)N5CCC(CO)CC5)CC4)cc3)CC2)n1 (centres unmarked) [Example 183, (4-(hydroxymethyl)piperidin-1-yl)(4-(4-((1-(3-isopropyl-1,2,4-oxadiazol-5-yl)piperidin-4-yl)methoxy)phenyl)cyclohex-3-enyl)methanone] | 12 | ≤ 50 |  | 
8 | CC(C)c1noc(N2CCC(COc3ccc(C4=CCC(C(=O)NC[C@@H](O)CO)CC4)cc3)CC2)n1 (stereo partly drawn) [Example 17, N-((R)-2,3-dihydroxypropyl)-4-(4-((1-(3-isopropyl-1,2,4-oxadiazol-5-yl)piperidin-4-yl)methoxy)phenyl)cyclohex-3-enecarboxamide] | 85 |  |  | 
9 | CCc1cnc(N2CCC(COc3ccc(C4=CCC(C(=O)N5CCCCC5)CC4)cc3)CC2)nc1 (centres unmarked) [Example 167, (4-(4-((1-(5-ethylpyrimidin-2-yl)piperidin-4-yl)methoxy)phenyl)cyclohex-3-enyl)(piperidin-1-yl)methanone hydrochloride] | 14 |  |  | 
10 | CC(C)(C)OC(=O)N1CCC(COc2ccc(C3=CCC(C(=O)N4CC[C@@H](F)C4)CC3)cn2)CC1 (stereo partly drawn) [Example 90, tert-butyl 4-((5-(4-((R)-3-fluoropyrrolidine-1-carbonyl)cyclohex-1-enyl)pyridin-2-yloxy)methyl)piperidine-1-carboxylate] | 24 | ≤ 50 |  | 
11 | CCc1cnc(N2CCC(COc3ccc(C4=CCC(C(=O)N5CCC(O)CC5)CC4)cc3)CC2)nc1 (centres unmarked) [Example 164, (4-(4-((1-(5-ethylpyrimidin-2-yl)piperidin-4-yl)methoxy)phenyl)cyclohex-3-enyl)(4-hydroxypiperidin-1-yl)methanone] | 16 | ≤ 50 |  | 
12 | CC(C)(C)OC(=O)N1CCC(COc2ccc(C3=CCC(C(=O)NCC(F)F)CC3)cc2F)CC1 (centres unmarked) [Example 85, tert-butyl 4-((4-(4-(2,2-difluoroethylcarbamoyl)cyclohex-1-enyl)-2-fluorophenoxy)methyl)piperidine-1-carboxylate] | 18 | ≤ 50 |  | 
13 | CCc1cnc(N2CCC(COc3ccc(C4=CCC(C(=O)N[C@@H](C)CO)CC4)cc3)CC2)nc1 (stereo partly drawn) [Example 127, 4-(4-((1-(5-ethylpyrimidin-2-yl)piperidin-4-yl)methoxy)phenyl)-N-((S)-1-hydroxypropan-2-yl)cyclohex-3-enecarboxamide] | 83 |  |  | 
14 | CC(C)c1noc(N2CCC(COc3ccc(C4=CCC(C(=O)N5CC(O)C5)CC4)cc3)CC2)n1 (centres unmarked) [Example 289, (3-hydroxyazetidin-1-yl)(4-(4-((1-(3-isopropyl-1,2,4-oxadiazol-5-yl)piperidin-4-yl)methoxy)phenyl)cyclohex-3-enyl)methanone] | 32 | ≤ 50 |  | 
15 | C[C@H](CO)NC(=O)C1CC=C(c2ccc(OCC3CCN(C(=O)OC(C)(C)C)CC3)c(F)c2)CC1 (stereo partly drawn) [Example 60, tert-butyl 4-((2-fluoro-4-(4-((R)-1-hydroxypropan-2-ylcarbamoyl)cyclohex-1-enyl)phenoxy)methyl)piperidine-1-carboxylate] | 40 | ≤ 50 |  | 
16 | CCc1cnc(N2CCC(COc3ccc(C4=CCC(C(=O)N5C/C(=N\OC)C(CO)(CO)C5)CC4)cc3)CC2)nc1 (centres unmarked) [Example 253, (Z)-(3,3-bis(hydroxymethyl)-4-(methoxyimino)pyrrolidin-1-yl)(4-(4-((1-(5-ethylpyrimidin-2-yl)piperidin-4-yl)methoxy)phenyl)cyclohex-3-enyl)methanone] | 9 |  |  | 
17 | CC(C)c1noc(N2CCC(COc3ccc(C4=CCC(C(=O)N5CCC(C#N)CC5)CC4)cc3)CC2)n1 (centres unmarked) [Example 266, 1-(4-(4-((1-(3-isopropyl-1,2,4-oxadiazol-5-yl)piperidin-4-yl)methoxy)phenyl)cyclohex-3-enecarbonyl)piperidine-4-carbonitrile] | 12 | ≤ 50 |  | 
18 | CC(C)(C)OC(=O)N1CCC(COc2ccc(C3=CCC(C(=O)N4CCCC4)CC3)cc2)CC1 (centres unmarked) [Example 202, tert-butyl 4-((4-(4-(pyrrolidine-1-carbonyl)cyclohex-1-enyl)phenoxy)methyl)piperidine-1-carboxylate] | 24 | ≤ 50 |  | 
19 | CC(C)c1noc(N2CCC(COc3ccc(C4=CCC(C(=O)N[C@@H](C)CO)CC4)nc3)CC2)n1 (stereo partly drawn) [Example 37, N-((S)-1-hydroxypropan-2-yl)-4-(5-((1-(3-isopropyl-1,2,4-oxadiazol-5-yl)piperidin-4-yl)methoxy)pyridin-2-yl)cyclohex-3-enecarboxamide] | 300 |  |  | 
20 | COC(=O)CNC(=O)C1CC=C(c2ccc(OCC3CCN(c4nc(C(C)C)no4)CC3)c(F)c2)CC1 (centres unmarked) [Example 109] | 190 |  |  | 
21 | CCc1cnc(N2CCC(COc3ccc(C4=CCC(C(=O)N(C)CCCO)CC4)cc3)CC2)nc1 (centres unmarked) [Example 242, 4-(4-((1-(5-ethylpyrimidin-2-yl)piperidin-4-yl)methoxy)phenyl)-N-(3-hydroxypropyl)-N-methylcyclohex-3-enecarboxamide] | 21 | ≤ 50 |  | 
22 | CCc1cnc(N2CCC(COc3ccc(C4=CCC(C(=O)NC[C@H](O)CO)CC4)cc3)CC2)nc1 (stereo partly drawn) [Example 128, N-((S)-2,3-dihydroxypropyl)-4-(4-((1-(5-ethylpyrimidin-2-yl)piperidin-4-yl)methoxy)phenyl)cyclohex-3-enecarboxamide] | 200 |  |  | 
23 | CN(CCO)C(=O)C1CC=C(c2ccc(OCC3CCN(C(=O)OC(C)(C)C)CC3)cc2)CC1 (centres unmarked) [Example 236, tert-butyl 4-((4-(4-((2-hydroxyethyl)(methyl)carbamoyl)cyclohex-1-enyl)phenoxy)methyl)piperidine-1-carboxylate] | 14 | ≤ 50 |  | 
24 | C[C@@H](CO)NC(=O)C1CC=C(c2ccc(OCC3CCN(C(=O)OC(C)(C)C)CC3)c(F)c2)CC1 (stereo partly drawn) [Example 59, tert-butyl 4-((2-fluoro-4-(4-((S)-1-hydroxypropan-2-ylcarbamoyl)cyclohex-1-enyl)phenoxy)methyl)piperidine-1-carboxylate] | 78 |  |  | 
25 | CCc1cnc(N2CCC(COc3ccc(C4=CCC(C(=O)N(CCO)CCO)CC4)cc3)CC2)nc1 (centres unmarked) [Example 181, 4-(4-((1-(5-ethylpyrimidin-2-yl)piperidin-4-yl)methoxy)phenyl)-N,N-bis(2-hydroxyethyl)cyclohex-3-enecarboxamide] | 24 | ≤ 50 |  | 
26 | CCc1cnc(N2CCC(COc3ccc(C4=CCC(C(=O)N5CCCCC5)CC4)cc3)CC2)nc1 (centres unmarked) [Example 163, (4-(4-((1-(5-ethylpyrimidin-2-yl)piperidin-4-yl)methoxy)phenyl)cyclohex-3-enyl)(piperidin-1-yl)methanone] | 7 | ≤ 50 |  | 
